Test results: publication PMC3549034 (Cancer research, 2012)
pIC50: −log10 of the molar value.

Target: Aurora B (Homo sapiens, UniProt Q96GD4)
Type: biochemical

Aurora B, sequence (Q96GD4 whole entry): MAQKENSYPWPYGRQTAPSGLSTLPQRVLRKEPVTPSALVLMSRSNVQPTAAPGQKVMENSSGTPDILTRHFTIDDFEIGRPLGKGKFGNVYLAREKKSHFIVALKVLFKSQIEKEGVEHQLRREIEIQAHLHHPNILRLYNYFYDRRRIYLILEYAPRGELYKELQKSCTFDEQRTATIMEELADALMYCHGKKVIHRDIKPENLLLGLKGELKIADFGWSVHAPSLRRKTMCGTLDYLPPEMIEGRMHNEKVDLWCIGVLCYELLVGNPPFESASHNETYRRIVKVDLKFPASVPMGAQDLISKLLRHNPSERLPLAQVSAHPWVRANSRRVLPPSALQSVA

pIC50: ~7.00
Compound: O=C(/C=C/c1ccc2c(c1)OCO2)/C=C1/C(=O)Nc2ccccc21 [HOI-07, (E)-3-((E)-4-(benzo[d][1,3]dioxol-5-yl)-2-oxobut-3-en-1-ylidene)indolin-2-one]
